In ChEMBL document CHEMBL1154509, “Synthesis and in vitro biological activity of retinyl polyhydroxybenzoates, novel hybrid retinoid derivatives” (Bioorg Med Chem Lett, 2009):
Blank lines part the entries; values can stand above or below the compound they belong to.

How the values were obtained:
[1] = target: T1, Tyrosinase (Homo sapiens) (UniProt P14679); assay: Inhibition of tyrosinase at 5 uM
T1 sequence (whole entry): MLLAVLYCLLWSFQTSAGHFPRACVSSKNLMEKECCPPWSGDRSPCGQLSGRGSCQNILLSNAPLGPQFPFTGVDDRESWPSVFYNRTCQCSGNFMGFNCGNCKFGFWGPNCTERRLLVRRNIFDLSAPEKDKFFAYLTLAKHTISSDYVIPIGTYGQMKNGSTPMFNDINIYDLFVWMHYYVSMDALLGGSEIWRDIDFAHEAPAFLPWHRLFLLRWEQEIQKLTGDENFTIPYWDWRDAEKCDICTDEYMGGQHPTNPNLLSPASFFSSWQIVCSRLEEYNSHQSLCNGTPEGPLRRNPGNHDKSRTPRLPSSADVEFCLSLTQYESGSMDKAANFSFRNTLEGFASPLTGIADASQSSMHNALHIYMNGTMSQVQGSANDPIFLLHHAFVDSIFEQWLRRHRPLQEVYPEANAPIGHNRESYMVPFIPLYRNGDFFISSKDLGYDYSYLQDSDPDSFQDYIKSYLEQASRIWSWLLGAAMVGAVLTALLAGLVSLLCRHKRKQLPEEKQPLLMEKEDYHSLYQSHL

Fibroblast [2] = assay: Inhibition of melanogenesis in […] at 5 uM; assay type: functional
[3] = Anti-aging activity in human dermal fibroblasts assessed as rate of procollagen formation at 0.005 weight % concentration relative to retinol; assay type: functional, Fibroblast
Fibroblast [4] = assay: Skin whitening activity in […] assessed as inhibition of melanin formation at 0.001 weight % concentration relative to resveratrol; assay type: functional
[5] = Toxicity against human dermal fibroblasts; assay type: cell-based, Fibroblast
[6] = Anti-aging activity in human dermal fibroblasts assessed as expression rate of procollagen type 1 formation at 200 uM relative to control; assay type: functional, Fibroblast
[7] = Toxicity against human dermal fibroblasts assessed as cell viability at 200 uM relative to control; assay type: cell-based, Fibroblast; settings: read-out: Activity
[8] = Antioxidant activity assessed as free radical scavenging activity at 5 uM; assay type: functional
[9] = Antioxidant activity assessed as free radical scavenging activity at 10 uM; assay type: functional
[10] = Inhibition of elastase at 5 uM
[11] = Inhibition of elastase at 10 uM
[12] = Anti-aging activity in human dermal fibroblasts assessed as inhibition rate of MMP1 expression at 10 uM relative to control; assay type: functional; settings: Fibroblast
[13] = Toxicity against human dermal fibroblasts assessed as cell viability at 10 uM relative to control; assay type: cell-based, Fibroblast; settings: read-out: Activity
[14] = Anti-aging activity in human dermal fibroblasts assessed as rate of procollagen formation at 0.001 weight % concentration relative to retinol; assay type: functional, Fibroblast
[15] = Toxicity against mouse B16/F10 cells assessed as cell viability at 5 uM relative to control; assay type: cell-based; settings: read-out: Activity
[16] = target: T2, Tyrosinase (Mus musculus) (UniProt P11344); assay: Inhibition of tyrosinase activity in mouse B16/F10 cells at 5 uM relative to control; assay type: cell-based
T2 sequence (whole entry): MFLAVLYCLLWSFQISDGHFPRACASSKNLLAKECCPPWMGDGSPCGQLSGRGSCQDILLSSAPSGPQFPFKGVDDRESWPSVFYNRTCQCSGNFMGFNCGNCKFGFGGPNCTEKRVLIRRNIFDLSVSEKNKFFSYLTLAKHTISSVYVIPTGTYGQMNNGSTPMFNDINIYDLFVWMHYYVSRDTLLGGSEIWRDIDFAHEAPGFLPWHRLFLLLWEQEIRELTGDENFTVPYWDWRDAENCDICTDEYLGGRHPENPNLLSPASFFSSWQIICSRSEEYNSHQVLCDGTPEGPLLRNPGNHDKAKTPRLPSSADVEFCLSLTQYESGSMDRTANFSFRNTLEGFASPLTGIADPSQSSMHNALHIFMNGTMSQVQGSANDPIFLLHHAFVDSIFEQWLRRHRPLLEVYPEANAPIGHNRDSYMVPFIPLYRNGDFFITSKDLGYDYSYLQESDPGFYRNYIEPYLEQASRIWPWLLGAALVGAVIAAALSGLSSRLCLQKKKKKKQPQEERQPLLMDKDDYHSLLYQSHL

B16-F10 = assay: Inhibition of rate of melanin formation in mouse B16/F10 cells at 5 uM relative to control; assay type: functional
[17] = Anti-aging activity in human dermal fibroblasts assessed as rate of procollagen formation at 0.0005 weight % concentration relative to retinol; assay type: functional, Fibroblast
[18] = Anti-aging activity in human dermal fibroblasts assessed as expression rate of procollagen type 1 formation at 10 uM relative to control; assay type: functional, Fibroblast
[19] = Anti-aging activity in human dermal fibroblasts assessed as expression rate of procollagen type 1 formation at 5 uM relative to control; assay type: functional, Fibroblast
[20] = Anti-aging activity in human dermal fibroblasts assessed as inhibition rate of MMP1 expression at 5 uM relative to control; assay type: functional; settings: Fibroblast
[21] = Thermal stability at 40 degC assessed as compound degradation after 4 weeks by HPLC; assay type: physicochemical; settings: 672 h
Fibroblast [22] = assay: Increase of collagen synthesis in human dermal fibroblasts at 5 uM; assay type: functional
[23] = Anti-aging activity in human dermal fibroblasts assessed as rate of procollagen formation at 0.0002 weight % concentration relative to retinol; assay type: functional, Fibroblast
Fibroblast [24] = assay: Skin whitening activity in […] assessed as inhibition of melanin formation at 0.0002 weight % concentration relative to resveratrol; assay type: functional
[25] = Toxicity against human dermal fibroblasts assessed as cell viability at 5 uM relative to control; assay type: cell-based, Fibroblast; settings: read-out: Activity
[26] = Anti-aging activity in human dermal fibroblasts assessed as rate of procollagen formation at 0.002 weight % concentration relative to retinol; assay type: functional, Fibroblast
Fibroblast [27] = assay: Skin whitening activity in […] assessed as inhibition of melanin formation at 0.002 weight % concentration relative to resveratrol; assay type: functional

inhibition [1]: -1.5%
Structure (SMILES): OC[C@H]1O[C@@H](Oc2ccc(O)cc2)[C@H](O)[C@@H](O)[C@@H]1O [ARBUTIN]
inhibition at 5 µM (Fibroblast [2]): 5.5%

Structure (SMILES): COc1cccc(O)c1C(=O)OC/C=C(C)/C=C/C=C(C)/C=C/C1=CCCCC1(C)C
Activity [3]: 54%
inhibition (INH) (Fibroblast [4]): 28%
IC50 [5]: 230 µM

Structure (SMILES): O=C1O[C@H]([C@@H](O)CO)C(O)=C1O [ASCORBIC ACID]
Activity [6]: 127.5%
viability at 200 µM [7]: 95.4%
Activity [8]: 19.1%
Activity [9]: 38.6%

inhibition [10]: 10.3%
inhibition [11]: 14.1%
Structure (SMILES): C[C@H]1[C@H](C)CC[C@]2(C(=O)O)CC[C@]3(C)C(=CC[C@@H]4[C@@]5(C)CC[C@H](O)C(C)(C)[C@@H]5CC[C@]43C)[C@H]12 [URSOLIC ACID]
IC50 [5]: 3.5 µM

Structure (SMILES): O=C(O[C@@H]1Cc2c(O)cc(O)cc2O[C@@H]1c1cc(O)c(O)c(O)c1)c1cc(O)c(O)c(O)c1 [EPIGALOCATECHIN GALLATE]
inhibition at 10 µM [12]: 46.7%
viability at 10 µM [13]: 95.2%

Structure (SMILES): COc1cc(NC(C)=O)cc(C(=O)OC/C=C(C)/C=C/C=C(C)/C=C/C2=CCCCC2(C)C)c1O
Activity [14]: 15%
IC50 [5]: < 10 µM

inhibition [16]: 31.3%
Structure (SMILES): CC(/C=C/C1=CCCCC1(C)C)=C\C=C\C(C)=C\COC(=O)c1cc(O)ccc1O
inhibition at 10 µM [12]: -32.2%
viability at 5 µM [15]: 99.7%
inhibition at 5 µM (B16-F10): 25.8%
Activity [17]: 55%
inhibition (INH) (Fibroblast [4]): 95%
IC50 [5]: 14 µM
viability at 10 µM [13]: 91.8%
Activity [18]: 78.7%

inhibition [1]: 36.2%
Structure (SMILES): Oc1ccc(/C=C/c2cc(O)cc(O)c2)cc1 [RESVERATROL]
Activity [8]: 5.6%
Activity [9]: 16.7%
inhibition at 5 µM (Fibroblast [2]): 25.5%
IC50 [5]: 900 µM

inhibition [16]: 49.6%
Stability [21]: Stable
inhibition [10]: 12.3%
inhibition [11]: 15.3%
inhibition [1]: 2.5%
Structure (SMILES): CC(/C=C/C1=CCCCC1(C)C)=C\C=C\C(C)=C\COC(=O)c1cc(O)c(O)c(O)c1
Activity [19]: 115.9%
inhibition at 5 µM [20]: -19.3%
viability at 5 µM [15]: 83.9%
inhibition at 5 µM (B16-F10): 27.5%
Activity [8]: 31.1%
Activity [9]: 62.8%
Activity (Fibroblast [22]): 13.5%
inhibition at 5 µM (Fibroblast [2]): 18.6%
Activity [23]: 91%
inhibition (INH) (Fibroblast [24]): 73%
IC50 [5]: 35 µM
viability at 5 µM [25]: 84.2%

Structure (SMILES): CC1=C(/C=C/C(C)=C/C=C/C(C)=C/C(=O)O)C(C)(C)CCC1 [TRETINOIN]
inhibition at 10 µM [12]: 59.2%
viability at 10 µM [13]: 105%

Structure (SMILES): CC(=O)Oc1ccccc1C(=O)OC/C=C(C)/C=C/C=C(C)/C=C/C1=CCCCC1(C)C
Activity [26]: 61%
inhibition (INH) (Fibroblast [27]): 32%
IC50 [5]: 150 µM
